“And” between values parts separate entries of the source, which are not always exact repeats. Identical values can stand only once.
Legend:
Type in all cases: binding
[1] = tested on: single-stranded DNA (5′-d(AGCAAAAAACGC)-3′; SEQ ID NO: 6); experiment: Melting temperature (Tm), capability of forming double strand with single-stranded DNA; details: sense strand 5′-d(AGCAAAAAACGC)-3′; 100 nM NaCl, 10 mM sodium phosphate buffer (pH 7.2), 4 μM of each strand; 0.5° C./min.
[2] = tested on: single-stranded RNA (5′-r(AGCAAAAAACGC)-3′; SEQ ID NO: 7); details: pH 7.2
[3] = tested on: Target double-stranded DNA (DNA-1), 203-bp PCR product from pBR322 plasmid; experiment: Strand invasion in the absence of SSB, gel shift assay; details: no SSB
Excerpt: (§1) Target double-stranded DNA molecules are as follows. • (DNA-1) A 203-bp PCR product produced using pBR322 plasmid (commercially available product) as a template (SEQ ID NOs: 23 and 24). • (DNA-2) A 203-bp PCR product produced using artificial gene T1825G (commercially available product) based on pBR322 plasmid as a template. • (DNA-3) A 203-bp PCR product produced using artificial gene T1825C (commercially available product) based on pBR322 plasmid as a template. • (DNA-4) A 203-bp PCR product produced using artificial gene T1825A (commercially available product) based on pBR322 plasmid as a template.
The reaction was carried out using a thermal cycler (StepOnePlus, Applied Biosystems), in which each of the sample solutions was cooled from 94° C. to 54° C. at a cooling rate of 2° C./30 seconds or was kept at 37° C. for a certain period (24 hours, 48 hours).
The condition that the sample solution was cooled from 94° C. to 54° C. at a cooling rate of 2° C./30 seconds was a condition where a target double-stranded DNA (in this case, a 203-bp PCR product) can be converted to a single strand by the action of a heat energy and strand invasion can be caused by cooling slowly. Therefore, the condition simulated the use in a gene analysis technique.
The condition that temperature is kept at 37° C. for a certain period simulated an in vivo reaction, and therefore simulated the use in a nucleic acid medicine or genome edition.
The same procedures as in the step (3) above were carried out. In this experiment, only the staining using GelGreen (fluorescence staining) was carried out.
The reaction was carried out using a thermal cycler (StepOnePlus, Applied Biosystems), in which each of the sample solutions was cooled from 94° C. to 54° C. at a cooling rate of 2° C./30 seconds.

[4] = tested on: Target double-stranded DNA (DNA-1), 203-bp PCR product from pBR322 plasmid; experiment: Strand invasion in the presence of SSB, gel shift assay; details: SSB 6 μM, oligonucleotide 200 nM, DNA-1 30 nM, 37° C. for 120, 60 or 30 minutes
Excerpt: as §1
Each of the sample solutions was reacted at 37° C. for 120 minutes, 60 minutes, or 30 minutes using a thermal cycler (StepOnePlus, Applied Biosystems).
After the completion of the reaction, two gels respectively having the sample solutions applied thereon prepared, and PAGE (Poly-Acrylamide Gel Electrophoresis) was carried out on the gels simultaneously under the following conditions. […]
After the completion of the electrophoresis, one of the gel was subjected to fluorescence staining (GelGreen Nucleic Acid Stain 10,000×, Biotium) for staining a nucleic acid, and the other gel was subjected to silver staining (EzStain Silver, ATTO corporation) for staining a nucleic acid and a protein simultaneously. […]

Substance | Tm [1] [°C] | Tm [2] | occurrence of strand invasion ([3]; oligonucleotide 100 nM (3.3 equivalents), DNA-1 30 nM, cooled from 94° C. to 54° C. or left at 37° C.) | occurrence of strand invasion (comparison of strand invasion functionality) ([3]; oligonucleotide 100 nM, DNA-1 30 nM, cooled from 94° C. to 54° C. or kept at 37° C. (24 hours, 48 hours)) | occurrence of strand invasion into the sequence for wild-type ([3]; oligonucleotide 200 nM, DNA-1 15 nM, cooled from 94° C. to 54° C. or kept at 37° C. (24 hours, 48 hours)) | occurrence of strand invasion [4]
5′-d(GCGTTTTTTGCT)-3′: unmodified DNA antisense strand, SEQ ID NO: 5 (unmodified DNA) | 52 | 48 °C and 52 °C | – | – | – | –
PNA20: PNA 20-mer H-(Lys)ggcatgttcatcatcagtaa(Lys)-NH2 (GGCATGTTCATCATCAGTAA; all peptide nucleic acid (PNA); Lys residue at N- and C-terminus, C-terminal amide) | – | – | the occurrence of strand invasion was not confirmed | the occurrence of strand invasion was not observed | did not cause strand invasion | observed
